From PMC11843613, “Further Optimization of the mGlu1 PAM VU6024578/BI02982816: Discovery and Characterization of VU6033685” (ACS Chemical Neuroscience, 2025)
Values joined by “and” are separate entries in the source; they are usually repeats but may differ in a detail not shown here. Identical values can stand only once.

Assays:
human mGlu1 = biological target: T1, human mGlu1 (Homo sapiens, UniProt Q13255); assay: mGlu1 PAM calcium mobilization assay (human); assay type: cell-based; conditions: for fold increase in mGlu1 PAM potency over 5: human mGlu1 EC50 ratio versus 5
T1 construct: expressed in transfected cells; pcDNA5/TO)
Text: Molecular Pharmacology. Tetracycline-tested fetal bovine serum (FBS) was purchased from Atlanta Biologicals (Lawrenceville, GA), and all other tissue culture reagents and Fluo-4-acetoxymethylester (Fluo-4-AM) were purchased from Life Technologies (Carlsbad, CA).
Tetracycline hydrochloride (Sigma), L-glutamic acid (Tocris, Minneapolis, MN), and (S)-3,5-dihydroxyphenylglycine (DHPG) (Abcam, Cambridge, MA). EZ-Link Sulfo-NHS-SS-Biotin and NeutrAvidin agarose beads (Pierce Biotechnology, Rockford, IL).
Cell Culture and Mutagenesis. Tetracycline-inducible human mGlu 1 WT-T-RExTM-293 cells (Wu et al, Science 2014) were cultured at 37 °C in Dulbecco’s Modified Eagle Medium (DMEM) growth medium containing 10% Tet-tested FBS, 2 mM L-glutamine, 20 mM HEPES, 0.1 mM non-essential amino acids, 1 mM sodium pyruvate, antibiotic/antimycotic, 100 µg/mL hygromycin and 5 µg/mL blasticidin in the presence of 5% CO 2. […]
Calcium Mobilization Assay. To determine the potency of mGlu 1 PAMs in calcium assays, Ca flux was measured as previously described in ACS Chem. Bio. 2014, 9, 2334-2346. Briefly, the day before the assay, human mGlu1 WT-T-RExTM-293 cells were plated in black-walled, clear-bottomed, poly-D-lysine coated 96-well plates at 80,000 cells/100 µL assay medium (DMEM supplemented with 10% dialyzed FBS, 20 mM HEPES, and 1 mM sodium pyruvate) containing 50 ng/mL of tetracycline to induce mGlu1 expression. The next day, media was removed and the cells were incubated with 50 µL of 1.15 µM Fluo-4 AM dye solution prepared in assay buffer (buffer (Hank’s balanced salt solution, 20 mM HEPES, and 2.5 mM probenecid) for 45 min at 37 °C, the dye was removed and replaced with 45 µL of assay buffer. Then, calcium flux was measured using Flexstation II (Molecular Devices, Sunnyvale, CA). Compounds serially diluted […]
at half log concentrations in DMSO were further diluted in assay buffer. The compounds or DMSO vehicle were added to cells and incubated for 2.5 min and an EC20 concentration of glutamate was added and incubated for 1 min. An ECmax concentration of glutamate was also added to cells that were incubated with DMSO vehicle to accurately calculate the EC20 calcium response. Data were normalized by subtracting the basal florescent peak before EC20 agonist addition from the maximal peak elicited by EC20 agonist and PAMs. Using GraphPad Prism 5.0, the concentration response curves were generated and the potencies of the mGlu1 PAMs were determined. […]

[1] = Plasma protein binding, equilibrium dialysis (human); assay type: in vitro ADME; conditions: pH 7.4, human plasma, read-out: fu plasma (h)
Experimental: (§1) page 13: at half log concentrations in DMSO were further diluted in assay buffer. The compounds or DMSO vehicle were added to cells and incubated for 2.5 min and an EC20 concentration of glutamate was added and incubated for 1 min. An ECmax concentration of glutamate was also added to cells that were incubated with DMSO vehicle to accurately calculate the EC20 calcium response. Data were normalized by subtracting the basal florescent peak before EC20 agonist addition from the maximal peak elicited by EC20 agonist and PAMs. Using GraphPad Prism 5.0, the concentration response curves were generated and the potencies of the mGlu1 PAMs were determined. DMPK Methods Plasma protein binding: The protein binding of each compound was determined in plasma via equilibrium dialysis employing RED Plates (ThermoFisher Scientific, Rochester, NY). Plasma was added to the 96 well plate containing test compound and mixed thoroughly for a final concentration of 5 µM. Subsequently, an aliquot of the plasma-compound mixture was transferred to the cis chamber (red) of the RED plate, with an phosphate buffer (25 mM, pH 7.4) in the trans chamber. The RED plate was sealed and incubated for 4 hours at 37°C with shaking. At completion, aliquots from each chamber were diluted 1:1 with either plasma (cis) or buffer (trans) and transferred to a new 96 well plate, at which time ice-cold acetonitrile containing internal standard (50 ng/mL carbamazepine) (2 volumes) was added to extract the matrices. The plate was centrifuged (3000 rcf, 10 min) and supernatants transferred and diluted 1:1 (supernatant: water) into a new 96 well plate, which was then sealed in preparation for LC/MS/MS analysis. Each compound was assayed in triplicate within the same 96-well plate. Fraction unbound was determined using the following equation F = Concbuffer u Conc plasma Intrinsic clearance: Human or rat hepatic microsomes (0.5 mg/mL) and 1 µM test compound were incubated in 100 mM potassium phosphate pH 7.4 buffer with 3 mM MgCl2 at 37°C with constant shaking. After a 5 min preincubation, the reaction was initiated by addition of NADPH (1 mM). At selected time intervals (0, 3, 7, 15, 25, and 45 min), aliquots were taken and subsequently placed into a 96-well plate containing cold acetonitrile with internal standard (50 ng/mL carbamazepine). Plates were then centrifuged at 3000 rcf (4° C) for 10 min, and the supernatant was transferred to a separate 96-well plate and diluted 1:1 with water for LC/MS/MS analysis. The in vitro half-life (T 1/2, min, Eq. 1), intrinsic clearance (CLint, mL/min/kg, Eq. 2) and subsequent predicted hepatic clearance (CLhep, mL/min/kg, Eq. 3) was determined S13

[2] = Plasma protein binding, equilibrium dialysis (rat); assay type: in vitro ADME; conditions: pH 7.4, rat plasma, read-out: fu plasma (r)
Experimental: as §1

T1 sequence (Q13255 19-1194): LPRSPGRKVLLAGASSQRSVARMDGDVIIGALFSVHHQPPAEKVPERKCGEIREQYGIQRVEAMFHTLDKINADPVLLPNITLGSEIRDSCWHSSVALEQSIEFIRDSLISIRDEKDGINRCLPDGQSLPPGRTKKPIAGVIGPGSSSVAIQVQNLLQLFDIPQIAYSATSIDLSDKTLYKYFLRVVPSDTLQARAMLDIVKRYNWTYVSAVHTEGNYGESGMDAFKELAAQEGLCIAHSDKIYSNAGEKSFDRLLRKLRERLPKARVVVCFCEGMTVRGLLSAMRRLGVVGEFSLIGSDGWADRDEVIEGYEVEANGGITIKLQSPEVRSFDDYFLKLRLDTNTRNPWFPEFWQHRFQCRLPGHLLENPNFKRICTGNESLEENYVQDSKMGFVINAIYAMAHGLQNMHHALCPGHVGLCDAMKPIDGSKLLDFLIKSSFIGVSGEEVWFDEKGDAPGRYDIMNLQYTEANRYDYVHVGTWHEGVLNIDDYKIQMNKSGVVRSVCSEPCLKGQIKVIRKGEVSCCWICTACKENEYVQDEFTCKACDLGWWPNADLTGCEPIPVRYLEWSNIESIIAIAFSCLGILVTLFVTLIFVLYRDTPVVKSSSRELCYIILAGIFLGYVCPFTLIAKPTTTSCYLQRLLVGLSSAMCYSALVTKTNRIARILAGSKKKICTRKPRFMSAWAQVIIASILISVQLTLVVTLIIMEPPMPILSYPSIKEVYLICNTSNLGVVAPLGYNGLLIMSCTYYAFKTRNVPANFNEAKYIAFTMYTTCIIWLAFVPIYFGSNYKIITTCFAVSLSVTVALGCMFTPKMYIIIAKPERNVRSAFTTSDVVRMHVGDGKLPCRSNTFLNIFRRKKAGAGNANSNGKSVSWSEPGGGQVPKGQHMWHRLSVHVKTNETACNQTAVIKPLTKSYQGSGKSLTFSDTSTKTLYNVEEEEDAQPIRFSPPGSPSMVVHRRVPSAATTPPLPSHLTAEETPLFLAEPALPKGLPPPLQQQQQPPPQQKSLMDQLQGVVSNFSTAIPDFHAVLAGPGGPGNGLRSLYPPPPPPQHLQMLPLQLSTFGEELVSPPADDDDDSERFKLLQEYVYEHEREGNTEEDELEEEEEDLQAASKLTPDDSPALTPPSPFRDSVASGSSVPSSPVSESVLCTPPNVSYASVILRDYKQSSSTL

Structure (SMILES) | EC50 (human mGlu1) | human mGlu1 Glu Max (human mGlu1) | fraction unbound at 4 h, 5 µM [1] | fraction unbound at 4 h, 5 µM [2] | fold increase in mGlu1 PAM potency over 5 (human mGlu1)
Cc1nc(C2CC2)ccc1CNC(=O)c1cc(-n2cccn2)ccc1Cl [compound 8] | 39 nM | 65% | 0.063 | 0.097 | ~14 fold
Cn1cc(-c2cc(CNC(=O)c3cc(-c4ccco4)ccc3Cl)n(C)n2)cn1 [compound 4] | 28 nM | 72% | 0.063 | 0.04 | –
Cc1nc2ccccc2cc1CNC(=O)c1cc(-n2cccn2)ccc1Cl [compound 6] | 32 nM | 56% | 0.037 | 0.054 | –

Second part, led by results:

EC50 (human mGlu1) | human mGlu1 Glu Max (human mGlu1) | fraction unbound at 4 h, 5 µM [1] | fraction unbound at 4 h, 5 µM [2] | Structure (SMILES) | fold increase in mGlu1 PAM potency over 5 (human mGlu1)
17 nM | 56% | 0.053 | 0.016 | Cc1nc2c(F)cccc2cc1CNC(=O)c1cc(-n2cccn2)ccc1Cl [compound 7] | ~31 fold
527 nM and 551 nM | 76% | 0.143 | 0.095 | Cn1nc(-c2ccnn2C)cc1CNC(=O)c1cc(-n2cccn2)ccc1Cl [compound 5] | –
